From patent publication US9499493B2, “2,4-pyrimidinediamine compounds and their uses” (Rigel Pharmaceuticals, Inc., priority 2002, dated 2016) come the findings set out here.

The test system of experiment [1] is cultured human mast cells (CHMC). Nature of the experiment: CHMC low cell density ionomycin activation: tryptase assay. It counts as cell-based.
For experiment [2] the test system is unchanged. Nature of the experiment: CHMC low cell density IgE activation: tryptase assay. The experiment is classed as cell-based. Particulars: anti-IgE. The essentials:
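Cells pelleted, taken up in warm MT, plated at 1000-1500/well, held 1 hr 37° C. Anti-IgE added, 30 min 37° C. Plates spun; supernatant mixed with tryptase substrate, 30 min RT.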

Structures can show the parent of a compound that is named as a salt.

What is called IC50 is the concentration needed to halve the response being measured. A low value points to greater potency in that assay. Take `COC(=O)c1cc2cc(Nc3ncc(F)c(Nc4ccc(OCc5nc(C)no5)cc4)n3)ccc2o1` [R935146, 5-Fluoro-N2-(2-methoxycarbonylbenzofura-5-yl)-N4-[4-(3-methyl-1,2,4-oxadiazol-5-yl)methyleneoxyphenyl]-2,4-pyrimidinediamine]: the IC50 in experiment [1] was over 10 µM; in experiment [2], 3.8 µM.

With `COC(=O)COc1ccc(Nc2ncc(F)c(Nc3ccc(OCC#N)cc3)n2)cc1` [R945053, N4-(4-Cyanomethyleneoxyphenyl)5-fluoro-N2-(4-methoxycarbonylmethyleneoxyphenyl)-2,4-pyrimidinediamine], the half-inhibitory concentration (IC50) in experiment [1] was 1.48 µM; in experiment [2], 0.119 µM.

As for `Cn1ncc2cc(Nc3ncc(F)c(Nc4ccc(Cl)cc4)n3)ccc21` [R935351, N4-(4-Chlorophenyl)-5-fluoro-N2-(1-methyl-indazoline-5-yl)-2,4-pyrimidinediamine], the IC50 in experiment [1] and in experiment [2] was over 10 µM in each case.

In the case of `COC(=O)COc1cc(O)cc(Nc2ncc(F)c(Nc3cccc(O)c3)n2)c1` [R926927, 5-Fluoro-N2-[3-hydroxy-5-(methoxycarbonylmethyleneoxy)phenyl]-N4-(3-hydroxyphenyl)-2,4-pyrimidinediamine], the half-maximal inhibitory concentration (IC50) in experiment [1] is over 10 µM; in experiment [2], 0.348 µM.

For the compound `CC(C)NC(=O)COc1ccc(Nc2ncc(C#N)c(Nc3ccc(OCC(=O)NC(C)C)cc3)n2)cc1` [R925861, N2,N4-Bis[4-(N-isopropylamino)carbonylmethyleneoxyphenyl]-5-cyano-2,4-pyrimidinediamine], the IC50 in experiment [1] and in experiment [2] was over 10 µM in each case.

Turning to `O=C(COc1cccc(Nc2ncc(F)c(Nc3cccc(O)c3)n2)c1)NCC(O)CO` (stereo not drawn) [R926746, 5-Fluoro-N4-(3-hydroxyphenyl)-N2-[3-(N-2,3-dihydroxypropylamino)carbonylmethyleneoxyphenyl]-2,4-pyrimidinediamine], the IC50 is over 10 µM in experiment [1] and 0.989 µM in experiment [2].

Consider `CNC(=O)CCn1ncc2ccc(Nc3ncc(F)c(Nc4ccc(OC(C)C)cc4)n3)cc21` [R935291, 5-Fluoro-N4-(4-isopropoxyphenyl)-N2-[1-[2(N-methylamino)carbonyl]ethyl-indazoline-6-yl]-2,4-pyrimidinediamine], for which the 50% inhibitory concentration (IC50) in experiment [1] is over 10 µM; in experiment [2] it was 1.36 µM.

Turning to `CNC(=O)COc1cccc(Nc2nc(Nc3cccc(C(C)(C)C)c3)ncc2F)c1` [R940267, N2-(3-tert-Butylphenyl)-N4-[3-(N-methylamino)carbonylmethyleneoxyphenyl]-5-fluoro-2,4-pyrimidinediamine], the figures for the IC50 in experiment [1] and in experiment [2] were over 10 µM and 3.15 µM, respectively.

With `COC(=O)COc1cccc(Nc2ncc(F)c(Nc3ccc4c(c3)OCCO4)n2)c1` [R945124, N4-(3,4-Ethylenedioxyphenyl)-5-fluoro-N2-(3-methoxycarbonylmethyleneoxyphenyl)-2,4-pyrimidinediamine], the 50% inhibitory concentration (IC50) amounted to 7.85 µM in experiment [1] and 0.69 µM in experiment [2].

Turning to `CNC(=O)COc1cccc(Nc2ncc(F)c(Nc3ccc(OCCC(=O)OC)cc3)n2)c1` [R950346, N4-(4-Methoxycarbonylethyleneoxyphenyl)-5-fluoro-N2-[3-(N-methylamino)carbonylmethyleneoxyphenyl]-2,4-pyrimidinediamine], the concentration for half-maximal inhibition (IC50) in experiment [1] is over 10 µM; in experiment [2], 0.345 µM.

With `Cn1nnnc1COc1ccc(Nc2ncc(F)c(Nc3ccc(OCc4nnnn4C)cc3)n2)cc1` [R945048, N2,N4-Bis[4-(1-methyl-1,2,3,4-tetrazol-5-yl)methyleneoxyphenyl]-5-fluoro-2,4-pyrimidinediamine], the 50% inhibitory concentration (IC50) in experiment [1] is over 10 µM; in experiment [2] it was 0.76 µM.

In the case of `CCOC(=O)COc1cccc(Nc2ncc(F)c(Nc3cc(Cl)c(O)c(Cl)c3)n2)c1` [R950185, N4-(3,5-Dichloro-4-hydroxyphenyl)-N2-(3-ethoxycarbonylmethyleneoxyphenyl)-5-fluoro-2,4-pyrimidinediamine], the figures for the half-maximal inhibitory concentration (IC50) in experiment [1] and in experiment [2] were 8.81 µM and 1.03 µM, respectively.

On to `COc1ccc(Nc2nc(Nc3cccc(OCC(=O)NCC(O)CO)c3)ncc2F)cc1OC` (stereo not drawn) [R926734, N2-[3-(N-2,3-Dihydroxypropylamino)carbonylmethyleneoxyphenyl]-N4-(3,4-dimethoxyphenyl)-5-fluoro-2,4-pyrimidinediamine], for which the values for the concentration for half-maximal inhibition (IC50) in experiment [1] and in experiment [2] were over 10 µM and 4.49 µM, respectively.

Turning to `CNC(=O)COc1ccc(Nc2ncc(F)c(Nc3cccc(O)c3)n2)cc1` [R945170, 5-Fluoro-N4-(3-hydroxyphenyl)-N2-[4-(N-methylamino)carbonylmethyleneoxyphenyl]-2,4-pyrimidinediamine], the results for the concentration for half-maximal inhibition (IC50) in experiment [1] and in experiment [2] were over 10 µM and 0.661 µM, respectively.

On to `Fc1cnc(Nc2ccc3c(c2)OCCO3)nc1Nc1ccc2cn[nH]c2c1` [R935261, N2-(3,4-Ethylenedioxyphenyl)-5-fluoro-N4-(indazoline-6-yl)-2,4-pyrimidinediamine], for which the IC50 was over 10 µM in experiment [1] and 0.391 µM in experiment [2].

`Cc1ccc(-c2ccccc2)cc1Nc1ncc(F)c(Nc2cc(-c3ccccc3)ccc2C)n1` [R926402, N2,N4-Bis[(2-methyl-5-phenyl)phenyl]-5-fluoro-2,4-pyrimidinediamine]: the IC50 in experiment [1] and in experiment [2] was over 10 µM each time.

As to `NC(=O)CNc1cccc(Nc2ncc(F)c(Nc3ccc4c(c3)OCCO4)n2)c1` [R950192, N2-[3-(N-Amino)carbonylmethyleneaminophenyl]-N4-(3,4-ethylenedioxyphenyl)-5-fluoro-2,4-pyrimidinediamine], the IC50 in experiment [1] was over 10 µM; in experiment [2], 0.244 µM.

As to `COC(=O)COc1ccc(Nc2ncc(F)c(Nc3ccc(OC(C)C)cc3)n2)cc1` [R935159, 5-Fluoro-N4-(4-isopropoxyphenyl)-N2-(4-methoxycarbonylmethyleneoxyphenyl)-2,4-pyrimidinediamine], the 50% inhibitory concentration (IC50) in experiment [1] was determined as 4.13 µM; in experiment [2], 0.232 µM.

With `CCOC(=O)c1cnc(Nc2ccc(OCC(=O)N3CCCC3)cc2)nc1Nc1ccc(OCC(=O)N2CCCC2)cc1` [R926562, N2,N4-Bis[4-(N-pyrrolidino)carbonylmethyleneoxyphenyl]-5-ethoxycarbonyl-2,4-pyrimidinediamine], the concentration for half-maximal inhibition (IC50) in experiment [1] and in experiment [2] was over 10 µM each time.

For the compound `OCCOc1cccc(Nc2ncc(CO)c(Nc3cccc(O)c3)n2)c1` [R926735, 5-(Hydroxymethyl)-N2-[3-(2-hydroxyethyleneoxy)phenyl]-N4-(3-hydroxyphenyl)-2,4-pyrimidinediamine], the IC50 in experiment [1] was over 10 µM; in experiment [2] it was 3.71 µM.

As to `Cc1noc(COc2ccc(Nc3nc(Nc4cccc(O)c4)ncc3F)cc2)n1` [R935147, 5-Fluoro-N2-(3-hydroxyphenyl)-N4-[4-(3-methyl-1,2,4-oxadiazol-5-yl)methyleneoxyphenyl]-2,4-pyrimidinediamine], the IC50 in experiment [1] is over 10 µM; in experiment [2], 1.4 µM.

In the case of `Cn1ncc2cc(Nc3ncc(F)c(Nc4ccc5c(c4)NC(=O)C(C)(C)O5)n3)ccc21` [R940338, N4-[(2,2-Dimethyl-4H-benzo[1,4]oxazin-3-one)-6-yl]-5-fluoro-N2-(1-methylindazolin-5-yl)-2,4-pyrimidinediamine], the IC50 was over 10 µM in experiment [1] and 0.073 µM in experiment [2].

For `CCOC(=O)COc1ccc(Nc2nc(Cl)cc(NCC(=O)OC)n2)cc1` [R926555, 6-Chloro-N2-(4-ethoxycarbonylmethyleneoxyphenyl)-N4-(methoxycarbonylmethyl)-2,4-pyrimidinediamine], the half-maximal inhibitory concentration (IC50) in experiment [1] and in experiment [2] was over 10 µM in each case.

Take `CNC(=O)COc1cc(Nc2ncc(F)c(Nc3cccc(O)c3)n2)ccc1OC` [R926829, 5-Fluoro-N4-(3-hydroxyphenyl)-N2-[4-methoxy-3-(N-methylamino)carbonylmethyleneoxyphenyl]-2,4-pyrimidinediamine]: the IC50 was over 10 µM in experiment [1] and 0.688 µM in experiment [2].

As to `COc1c(C)cc(Nc2nc(Nc3cccc(OCCN4CCNCC4)c3)ncc2F)cc1C` [R945157, N4-(3,5-Dimethyl-4-methoxyphenyl)-5-fluoro-N2-[3-[2-(N-piperazino)ethoxy]phenyl]-2,4-pyrimidinediamine Dihydrochloride Salt], the IC50 in experiment [1] is over 10 µM; in experiment [2], 1.48 µM.

As for `CC(C)c1cccc(Nc2nc(Nc3cccc(OCC(=O)NC[C@@H](O)CO)c3)ncc2F)c1` [R940307, (R)—N2-[3-(dihydroxypropylaminocarbonylmethyleneoxy)-phenyl]-5-fluoro-N4-(3-isopropylphenyl)-2,4-pyrimidinediamine], the results for the IC50 in experiment [1] and in experiment [2] were over 10 µM and 0.291 µM, respectively.

Take `CCOC(=O)COc1ccc(Nc2nc(Nc3ccc(OCC(=O)OCC)cc3)c(NC(=O)NC(=O)OCC)c(C(=O)OCC)n2)cc1` [R926586, N2,N4-Bis(4-ethoxycarbonylmethyleneoxyphenyl)-6-ethoxycarbonyl-5-(ethoxycarbonylaminocarbonylamino)-2,4-5-pyrimidinetriamine]: the IC50 in experiment [1] is over 10 µM; in experiment [2], 2.75 µM.

As to `O=C(NCCNCc1ccccc1)c1cc2cc(Nc3ncc(F)c(Nc4ccc5oc(C(=O)NCCNCc6ccccc6)cc5c4)n3)ccc2o1` [R950169, N2,N4-Bis[2-(2-(N-benzylamino)ethyleneamoinocarbonyl)-benzofurane-5-yl]-5-fluoro-2,4-pyrimidinediamine], the concentration for half-maximal inhibition (IC50) in experiment [1] came to 9.52 µM; in experiment [2], 1.27 µM.

With `CC(C)Oc1ccc(Nc2nc(Nc3cccc(OCC(=O)O)c3)ncc2F)cc1` [R926731, 5-Fluoro-N2-[3-(carboxymethyleneoxy)phenyl]-N4-[4-(isopropoxy)phenyl]-2,4-pyrimidinediamine], the IC50 in experiment [1] and in experiment [2] was over 10 µM each time.

`OCCCn1ncc2ccc(Nc3ncc(F)c(Nc4ccc5c(c4)OCCO5)n3)cc21` [R935287, N4-(3,4-Ethylenedioxyphenyl)-5-fluoro-N2-[1-(3-hydroxypropyl)indazoline-6-yl]-2,4-pyrimidinediamine]: the half-inhibitory concentration (IC50) in experiment [1] was over 10 µM; in experiment [2] it was 0.403 µM.
